Laboratory results published in patent US9980943B2, “Methods of treating muscular dystrophy” (BOARD OF REGENTS OF THE NEVADA SYSTEM OF HIGHER EDUCATION, …, priority 2013, dated 2018).

Experiments:
Format in all cases: cell-based, mouse
[1] = tested on: α7 integrin (LacZ reporter in α7βgal+/− myoblasts); experiment: Myoblast α7+/LacZ integrin FDG assay (Burkin assay in myoblasts, 96-well); settings: α7+/LacZ myoblasts, 96-well
[2] = tested on: α7 integrin (LacZ reporter in α7+/LacZ myotubes); experiment: Myotube α7 integrin FDG assay (Burkin assay in myotubes, 96-well); settings: myotubes
[3] = tested on: β-galactosidase in CMV-LacZ C2C12 myotubes; experiment: CMV-LacZ secondary screen in C2C12 myotubes (β-Gal stabilizing assay); settings: for CMV-LACZ in Myotubes (β-galactosidase activity relative to DMSO): CMV-LacZ C2C12 myotubes, 96-well format
From the text: In order to determine compounds that acted to stabilize β-gal in myogenic cells, a CMV-LacZ C2C12 cell line was used in a secondary screen. The EGFP gene from the pEGFP (Clontech) vector was replaced by LACZ PCR product with digests of the vector/PCR product performed using EcoRI (NEB) and NotI (NEB) and ligated using T4 DNA Ligase (NEB) following standard procedures to produce the CMV-LACZ vector. The LACZ gene was generated by PCR from the pBK-RSV (Stratagene) vector using primers LACZ EcoRI F- and LACZ NotI R-. The CMV-LACZ vector was then digested with AfIII (NEB) to linearize the construct, which was then transfected in C2C12 myoblasts using Lipofectamine 2000 (Invitrogen) following the manufacturer's instructions. […] Clonal lines were selected and screened for βgal levels using the myoblast FDG assay.
The assays were used the original 96-well format and new dose-response curves for myoblasts (N=3-6 replicates for each data point), myotubes (N=3-6 replicates for data point), and CMV-LacZ secondary assay (N=2 replicates for each data point) using concentrations of 0.5 μM, 1 μM, 5 μM, 10 μM, 20 μM, and 40 μM (Tables 9-16).

[4] = 5 uM, C2C12 CMV-LacZ myotubes, fold relative to DMSO
[5] = 10 uM, C2C12 CMV-LacZ myotubes, fold relative to DMSO
[6] = 20 uM, C2C12 CMV-LacZ myotubes, fold relative to DMSO
[7] = 40 uM, C2C12 CMV-LacZ myotubes, fold relative to DMSO

Structure (SMILES)	CMV-LACZ in Myotubes, signal relative to DMSO [3, 4]	CMV-LACZ in Myotubes, signal relative to DMSO [3, 5]	CMV-LACZ in Myotubes, signal relative to DMSO [3, 6]	CMV-LACZ in Myotubes, signal relative to DMSO [3, 7]	Burkin Assay in Myoblasts, value relative to DMSO ([1]; 0.5 uM)	Burkin Assay in Myoblasts, value relative to DMSO ([1]; 1 uM)	Burkin Assay in Myoblasts, value relative to DMSO ([1]; 5 uM)	Burkin Assay in Myoblasts, value relative to DMSO ([1]; 10 uM)	Burkin Assay in Myoblasts, value relative to DMSO ([1]; 20 uM)	Burkin Assay in Myoblasts, value relative to DMSO ([1]; 40 uM)	Burkin Assay in Myotubes (signal relative to DMSO) ([2]; 0.5 uM)	Burkin Assay in Myotubes (signal relative to DMSO) ([2]; 1 uM)	Burkin Assay in Myotubes (signal relative to DMSO) ([2]; 5 uM)	Burkin Assay in Myotubes (signal relative to DMSO) ([2]; 10 uM)	Burkin Assay in Myotubes (signal relative to DMSO) ([2]; 20 uM)	Burkin Assay in Myotubes (signal relative to DMSO) ([2]; 40 uM)	CMV-LACZ in Myotubes (β-galactosidase activity relative to DMSO) ([3]; 5 uM)	CMV-LACZ in Myotubes (β-galactosidase activity relative to DMSO) ([3]; 10 uM)	CMV-LACZ in Myotubes (β-galactosidase activity relative to DMSO) ([3]; 20 uM)	CMV-LACZ in Myotubes (β-galactosidase activity relative to DMSO) ([3]; 40 uM)	also measured
COC(=O)C1=NNC2(C)C(=O)N(c3ccc(C)cc3)C(=O)C12 (stereo not shown) [MLS000767227-01]	1.024	1.1	0.9975	1.1815	–	–	–	–	–	–	–	–	–	–	–	–	–	–	–	–	Burkin Assay in Myoblasts, signal relative to DMSO ([1]; 0.5 uM): 1.025; Burkin Assay in Myoblasts, signal relative to DMSO ([1]; 1 uM): 0.8073; Burkin Assay in Myoblasts, signal relative to DMSO ([1]; 5 uM): 0.8577; Burkin Assay in Myoblasts, signal relative to DMSO ([1]; 10 uM): 0.9107; Burkin Assay in Myoblasts, signal relative to DMSO ([1]; 20 uM): 0.9133; Burkin Assay in Myoblasts, signal relative to DMSO ([1]; 40 uM): 0.9283; Burkin Assay in Myotubes, α7 integrin LacZ reporter signal relative to DMSO ([2]; 0.5 uM): 0.8593; Burkin Assay in Myotubes, α7 integrin LacZ reporter signal relative to DMSO ([2]; 1 uM): 0.8998; Burkin Assay in Myotubes, α7 integrin LacZ reporter signal relative to DMSO ([2]; 5 uM): 0.9645; Burkin Assay in Myotubes, α7 integrin LacZ reporter signal relative to DMSO ([2]; 10 uM): 0.844; Burkin Assay in Myotubes, α7 integrin LacZ reporter signal relative to DMSO ([2]; 20 uM): 0.7775; Burkin Assay in Myotubes, α7 integrin LacZ reporter signal relative to DMSO ([2]; 40 uM): 0.9434
CCS(=O)(=O)N1CCCC(C(=O)c2ccc(OC)cc2C)C1 (stereo not shown) [MLS000693747-01]	–	–	–	–	1.114	1.036	1.0596	1.088	0.8796	0.9175	1.061	0.7194	1.433	0.9111	1.122	1.0456	0.9962	0.9523	0.9693	1.043	–
COc1cc(/C=C/c2nc(-c3ccccc3O)n[nH]2)cc(OC)c1OC [MLS000548725-01]	–	–	–	–	0.9132	0.8894	0.8989	0.7645	0.5169	0.07694	0.8698	0.8418	0.9206	0.8462	1.031	0.2219	0.9789	1.126	0.8729	0.332	–
Cc1ccc(OCC(=O)N2CCN(S(=O)(=O)c3ccc4c(c3)OCCO4)CC2)c(C)c1 [MLS002158881-01]	–	–	–	–	–	–	–	–	–	–	–	–	–	–	–	–	–	–	–	–	fold induction at 0.5 µM ([1]; Mus musculus, Myoblast, 48 h, 0.5 uM, read-out: Burkin Assay in Myoblasts, signal relative to DMSO): 0.888; fold induction at 1 µM ([1]; Mus musculus, Myoblast, 48 h, 1 uM, read-out: Burkin Assay in Myoblasts, signal relative to DMSO): 0.838; fold induction at 5 µM ([1]; Mus musculus, Myoblast, 48 h, 5 uM, read-out: Burkin Assay in Myoblasts, signal relative to DMSO): 0.989; fold induction at 10 µM ([1]; Mus musculus, Myoblast, 48 h, 10 uM, read-out: Burkin Assay in Myoblasts, signal relative to DMSO): 1.02; fold induction at 20 µM ([1]; Mus musculus, Myoblast, 48 h, 20 uM, read-out: Burkin Assay in Myoblasts, signal relative to DMSO): 1.12; fold induction at 40 µM ([1]; Mus musculus, Myoblast, 48 h, 40 uM, read-out: Burkin Assay in Myoblasts, signal relative to DMSO): 1.21; fold induction at 0.5 µM ([2]; Mus musculus, Myotube, 0.5 uM, read-out: Burkin Assay in Myotubes, α7 integrin LacZ reporter signal relative to DMSO): 0.896; fold induction at 1 µM ([2]; Mus musculus, Myotube, 1 uM, read-out: Burkin Assay in Myotubes, α7 integrin LacZ reporter signal relative to DMSO): 0.865; fold induction at 5 µM ([2]; Mus musculus, Myotube, 5 uM, read-out: Burkin Assay in Myotubes, α7 integrin LacZ reporter signal relative to DMSO): 0.67; fold induction at 10 µM ([2]; Mus musculus, Myotube, 10 uM, read-out: Burkin Assay in Myotubes, α7 integrin LacZ reporter signal relative to DMSO): 0.773; fold induction at 20 µM ([2]; Mus musculus, Myotube, 20 uM, read-out: Burkin Assay in Myotubes, α7 integrin LacZ reporter signal relative to DMSO): 1.2; fold induction at 40 µM ([2]; Mus musculus, Myotube, 40 uM, read-out: Burkin Assay in Myotubes, α7 integrin LacZ reporter signal relative to DMSO): 1; fold induction at 5 µM ([3]; Mus musculus, C2C12, read-out: CMV-LACZ in Myotubes, signal relative to DMSO, 5 uM, C2C12 CMV-LacZ myotubes, fold relative to DMSO): 0.792; fold induction at 10 µM ([3]; Mus musculus, C2C12, read-out: CMV-LACZ in Myotubes, signal relative to DMSO, 10 uM, C2C12 CMV-LacZ myotubes, fold relative to DMSO): 0.827; fold induction at 20 µM ([3]; Mus musculus, C2C12, read-out: CMV-LACZ in Myotubes, signal relative to DMSO, 20 uM, C2C12 CMV-LacZ myotubes, fold relative to DMSO): 0.864; fold induction at 40 µM ([3]; Mus musculus, C2C12, read-out: CMV-LACZ in Myotubes, signal relative to DMSO, 40 uM, C2C12 CMV-LacZ myotubes, fold relative to DMSO): 0.81
COc1ccc(CNC(=O)CCN2C(=O)c3ccccc3C2=O)cc1 [MLS001200980-01]	0.8782	0.9568	0.9272	1.0886	0.9918	0.9255	1.055	0.9544	0.9561	0.9201	1.0669	1.022	1.121	1.216	1.015	0.9712	–	–	–	–	–
O=C1CCc2cc(S(=O)(=O)Nc3ccc(C(F)(F)F)cc3)cc3c2N1CC3 [MLS001237320-01]	0.9582	0.7569	0.9895	1.082	–	–	–	–	–	–	–	–	–	–	–	–	–	–	–	–	Burkin Assay in Myoblasts, signal relative to DMSO ([1]; 0.5 uM): 0.9733; Burkin Assay in Myoblasts, signal relative to DMSO ([1]; 1 uM): 0.9848; Burkin Assay in Myoblasts, signal relative to DMSO ([1]; 5 uM): 0.9145; Burkin Assay in Myoblasts, signal relative to DMSO ([1]; 10 uM): 0.8495; Burkin Assay in Myoblasts, signal relative to DMSO ([1]; 20 uM): 0.9287; Burkin Assay in Myoblasts, signal relative to DMSO ([1]; 40 uM): 0.8187; Burkin Assay in Myotubes, α7 integrin LacZ reporter signal relative to DMSO ([2]; 0.5 uM): 0.9879; Burkin Assay in Myotubes, α7 integrin LacZ reporter signal relative to DMSO ([2]; 1 uM): 1.055; Burkin Assay in Myotubes, α7 integrin LacZ reporter signal relative to DMSO ([2]; 5 uM): 1.035; Burkin Assay in Myotubes, α7 integrin LacZ reporter signal relative to DMSO ([2]; 10 uM): 0.6554; Burkin Assay in Myotubes, α7 integrin LacZ reporter signal relative to DMSO ([2]; 20 uM): 0.9912; Burkin Assay in Myotubes, α7 integrin LacZ reporter signal relative to DMSO ([2]; 40 uM): 0.9787
CN(C)S(=O)(=O)c1cccc(C(=O)Nc2ccc3c(c2)CCC3)c1 [MLS001176611-01]	–	–	–	–	1.049	0.994	1.097	1.072	0.8398	0.9134	0.9506	0.6671	1.066	0.9301	0.9665	0.9846	0.9287	1.235	1.034	0.785	–
